From ChEMBL document CHEMBL1857833, “Screening and optimization of specific chemical series against human African Trypanosomiasis (HAT)”
Converted amounts (≈) assume the structure as drawn. “And” between values parts separate entries of the source, which are not always exact repeats. Equal entries are not always repeated.

Key:
[1] = DNDI: Cytotoxicity against L929 mouse fibroblasts, 72 hour.; format: toxicity, cell-based; conditions: mouse, L929 mouse fibroblasts
[2] = DNDI: Cytotoxicity against L929 mouse fibroblasts, CYTO-SP, 24 hour; format: toxicity, cell-based; conditions: mouse, L929 mouse fibroblasts
Trypanosoma brucei = assay: DNDI: Inhibition of Human African Trypanosomiasis, SBRI 427, in vitro; format: functional, organism-based
[3] = Trypanosoma brucei, SBRI 427, read-out: IC50

SMILES | IC50 at 72 h [1] [µg/mL] | IC50 at 24 h [2] [µg/mL] | IC50 (Trypanosoma brucei; [3]) [µg/mL] | IC50 (Trypanosoma brucei)
CCCCCC(C)NCc1coc(-c2ccccc2O)n1 (configuration not stated) | 7.32 (≈ 25.4 µM) | 24 (≈ 83.2 µM) | 3.56 (≈ 12.3 µM) | –
CCCCCC(C)NCc1coc(-c2cccc(F)c2)n1 (configuration not stated) | 7.19 (≈ 24.8 µM) | 19 (≈ 65.4 µM) | 2.14 (≈ 7.37 µM) | –
Cc1cc(C)cc(Oc2ccc(/C(=N/O)NC3CCC3)cn2)c1 | – | > 50 | 0.59 (≈ 1.89 µM) | –
C[C@@H]1[C@@H](N/C(=N\O)c2ccccc2-c2ccccc2)C[C@H]2C[C@@H]1C2(C)C | – | 17 (≈ 48.8 µM) | > 5 | –
Cc1cc(C)cc(Oc2ccc(/C(=N/O)NC3CCCC3)cn2)c1 | – | < 50 | 0.59 (≈ 1.81 µM) | –
CCCOc1ccc(-c2nc(CNC3CCCCCC3)co2)cc1 | < 3.13 | 15.8 (≈ 48.1 µM) | 1.25 (≈ 3.81 µM) | –
CCOc1ccc(-c2nc(CNC3C[C@@H]4C[C@H]([C@@H]3C)C4(C)C)co2)cc1 (some centres not stated) | 3.64 (≈ 10.3 µM) | > 50 | > 5 | –
CCOc1ccc(-c2nc(CCl)co2)cc1 | 25.9 (≈ 109 µM) | > 5 | 2.19 (≈ 9.21 µM) | –
CSc1ccccc1Oc1ncccc1/C(=N/O)NCC1CC1 | – | > 50 | – | 0.53 µg/mL and < 0.19 µg/mL
COc1ccccc1Oc1ncccc1C(=N)NC1CCCCC1 | – | > 50 | > 5 | –
CC(C)c1ccc(Oc2ncccc2/C(=N/O)NCc2cccs2)cc1 | – | > 50 | 0.89 (≈ 2.42 µM) | –
CN(/C(=N\O)c1cccnc1OCc1cccc(F)c1)c1ccccc1 | – | > 50 | 1.09 (≈ 3.1 µM) | –
COc1ccccc1/C(N)=N/O | – | > 50 | > 5 | –
COc1ccccc1-c1noc(C(C)C)n1 | – | > 50 | > 5 | –
CCCC(CCC)NCc1coc(-c2ccc(OCC)cc2)n1 | 6.37 (≈ 20.1 µM) | > 50 | – | –
CC1CCCC(NCc2coc(-c3ccccc3Br)n2)C1C (configuration not stated) | – | > 50 | – | 2.06 µg/mL and 0.92 µg/mL
CCCNC/C(=N\O)c1ccc(OC)cc1 | – | > 50 | > 5 | –
CCCCCC(C)NCc1coc(-c2ccc3ccccc3c2)n1 (configuration not stated) | 5.65 (≈ 17.5 µM) | 17 (≈ 52.7 µM) | 1.09 (≈ 3.38 µM) | –
COc1cccc(/C(=N/O)N(C(=O)C(C)C)C(=O)C(C)C)c1 | – | > 50 | > 5 | –
CCCCCC(C)NCc1nc(-c2ccccc2)no1 (configuration not stated) | 30.8 (≈ 113 µM) | 50 (≈ 183 µM) | > 5 | –
CCOc1ccc(-c2nc(CN(C)Cc3coc(-c4ccc(OCC)cc4)n3)co2)cc1 | > 50 | > 50 | > 5 | –
O/N=C(/NC1CCCCC1)c1ccc2ccccc2c1 | – | 21.1 (≈ 78.7 µM) | > 5 | –

SMILES | IC50 at 72 h [1] [µg/mL] | IC50 at 24 h [2] [µg/mL] | IC50 (Trypanosoma brucei; [3]) [µg/mL] | IC50 (Trypanosoma brucei)
O/N=C(\NC1CCCCC1)c1cccc(-c2ccccc2)c1 | – | 35 (≈ 119 µM) | 2.6 (≈ 8.83 µM) | –
CCCCCC(C)NCc1noc(-c2ccccc2)n1 (configuration not stated) | 30.7 (≈ 112 µM) | 50 (≈ 183 µM) | > 5 | –
CCCCc1ccc(-c2nc(C)co2)cc1 | 42.1 (≈ 195 µM) | > 50 | > 5 | –
CCCCCC(C)NCc1csc(-c2ccccc2)n1 (configuration not stated) | 4.45 (≈ 15.4 µM) | 18 (≈ 62.4 µM) | 2.64 (≈ 9.15 µM) | –
CCCOc1ccc(-c2nc(CNC3[C@H]4C[C@@H]5C[C@@H](C[C@H]3C5)C4)co2)cc1 (some centres not stated) | 3.67 (≈ 10 µM) | > 50 | 0.69 (≈ 1.88 µM) | –
CON(C)C(=O)c1ccccc1-c1ccccc1 | – | > 50 | > 5 | –
CCc1ccc(Oc2ncccc2/C(=N/O)NCc2ccccc2)cc1 | – | > 50 | 1.08 (≈ 3.11 µM) | –
Cc1cc(C)cc(Oc2ccc(/C(=N/O)NC3CCCCC3)cn2)c1 | – | > 50 | 1.08 (≈ 3.18 µM) | –
CCOc1ccc(-c2nc(CNCc3ccccc3)co2)cc1 | 18.1 (≈ 58.6 µM) | > 50 | > 5 | –
O/N=C(\NCC1CC1)c1cccnc1Oc1ccc2ccccc2c1 | – | > 50 | 0.62 (≈ 1.86 µM) | –
Cc1cc(C)cc(Oc2ccc(/C(=N/O)NCC(C)(C)C)cn2)c1 | – | > 50 | 0.77 (≈ 2.35 µM) | –
COc1ccccc1Oc1ncccc1C(=N)N | – | > 50 | > 5 | –
CCCCCC(C)NCc1coc(-c2ccccc2Cl)n1 (configuration not stated) | 7.17 (≈ 23.4 µM) | 17 (≈ 55.4 µM) | 2.42 (≈ 7.89 µM) | –
CCCCCC(C)NCc1cc(-c2ccccc2)on1 (configuration not stated) | 12.9 (≈ 47.3 µM) | 32 (≈ 117 µM) | 5 (≈ 18.4 µM) | –
CC1CCC(C)N1/C(=N\O)c1ccc(Oc2ccc3ccccc3c2)nc1 (configuration not stated) | – | > 50 | 0.91 (≈ 2.52 µM) | –
CCCCc1ccc(-c2nc(-c3ccccc3)co2)cc1 | 26.6 (≈ 96 µM) | > 50 | > 5 | –
O/N=C(\NC1CCCCC1)c1ccc(Br)cc1 | – | 38 (≈ 128 µM) | > 5 | –
CCOc1ccc(-c2nc(CN[C@]34C[C@H]5C[C@H](C[C@H](C5)C3)C4)co2)cc1 | 28.4 (≈ 80.5 µM) | > 50 | > 5 | –
COc1ccc(/C(=N/O)NCC2CCCCC2)cc1 | – | > 50 | 3.41 (≈ 13 µM) | –
COc1ccc(/C(CO)=N/O)cc1 | – | > 50 | > 5 | –
CCCCCC(C)NCc1coc(-c2ccc(C(F)(F)F)cc2)n1 (configuration not stated) | 3.55 (≈ 10.4 µM) | > 50 | 1.63 (≈ 4.79 µM) | –
CCCCCC(C)NCc1cc(-c2ccccc2)n(C)n1 (configuration not stated) | 12.8 (≈ 45 µM) | 50 (≈ 175 µM) | 4.05 (≈ 14.2 µM) | –

SMILES | IC50 at 72 h [1] [µg/mL] | IC50 at 24 h [2] [µg/mL] | IC50 (Trypanosoma brucei; [3]) [µg/mL] | IC50 (Trypanosoma brucei)
COc1cccc(/C(N)=N/O)c1 | – | > 50 | > 5 | –
CC(C)c1ccc(Oc2ncccc2/C(=N/O)NCc2ccco2)cc1 | – | > 50 | 0.96 (≈ 2.73 µM) | –
COc1ccc(C(=O)NC2CCCCC2)cc1 | – | > 50 | > 5 | –
CCCCCC(C)NCc1ccc(-c2ccccc2)s1 (configuration not stated) | 7.16 (≈ 24.9 µM) | 23 (≈ 80 µM) | 1.8 (≈ 6.26 µM) | –
COc1cccc(-c2noc(C(C)C)n2)c1 | – | > 50 | > 5 | –
COc1ccc(-c2noc(C(C)C)n2)cc1 | – | > 50 | > 5 | –
COc1ccc(C(=O)N(C)OC)cc1 | – | > 50 | > 5 | –
COc1ccc(Oc2ncccc2/C(=N/O)NC2CCCCC2)cc1 | > 10 | > 50 | 0.29 (≈ 0.849 µM) | 0.33 µg/mL (≈ 0.967 µM)
Cc1cc(C)cc(Oc2ccc(/C(=N/O)NCC3CC3)cn2)c1 | – | > 50 | 1.02 (≈ 3.28 µM) | –
CCCCCC(C)NCc1coc(-c2ccccc2C)n1 (configuration not stated) | 3.6 (≈ 12.6 µM) | 16 (≈ 55.9 µM) | 4.1 (≈ 14.3 µM) | –
OC/C(=N\O)c1ccccc1 | – | > 50 | > 5 | –
CC(C)c1ccc(Oc2ncccc2/C(=N/O)NCC2CCCO2)cc1 (configuration not stated) | – | > 50 | 0.54 (≈ 1.52 µM) | –
CC(C)c1ccc(Oc2ncccc2/C(=N/O)NC2CCc3ccccc32)cc1 (configuration not stated) | – | 45.1 (≈ 116 µM) | 0.98 (≈ 2.53 µM) | –
COc1ccc(C(=O)NC2CCCCC2)c(OC)c1 | – | > 50 | > 5 | –
O/N=C(\NC1CCCCC1)c1cccc(Br)c1 | – | 39 (≈ 131 µM) | 3.28 (≈ 11 µM) | –
COc1cc(C)ccc1Oc1ncccc1C(=N)N | – | > 50 | > 5 | –
CCCCCC(C)NCc1cc(-c2ccccc2)nn1C (configuration not stated) | 12.7 (≈ 44.5 µM) | 50 (≈ 175 µM) | 3.38 (≈ 11.8 µM) | –
CCCCCC(C)NCc1coc(-c2ccc(F)cc2)n1 (configuration not stated) | 7.1 (≈ 24.5 µM) | 17 (≈ 58.5 µM) | 2.71 (≈ 9.33 µM) | –
CCc1ccc(N/C(=N/O)c2ccccc2-c2ccccc2)cc1 | – | 15.6 (≈ 49.4 µM) | 5 (≈ 15.8 µM) | –
CC(C)COc1ncccc1/C(=N/O)NC1CCCC1 | – | > 50 | 0.96 (≈ 3.46 µM) | –
O/N=C(\NC1CCCCC1)c1ccccc1F | – | > 50 | 3.92 (≈ 16.6 µM) | –
CCCCCC(C)NCc1coc(-c2cccc3ccccc23)n1 (configuration not stated) | 6.56 (≈ 20.3 µM) | 16 (≈ 49.6 µM) | 1.14 (≈ 3.54 µM) | –

SMILES | IC50 at 72 h [1] [µg/mL] | IC50 at 24 h [2] [µg/mL] | IC50 (Trypanosoma brucei; [3]) [µg/mL] | IC50 (Trypanosoma brucei)
O/N=C(/c1ccccc1-c1ccccc1)N1CCCCCCC1 | – | > 50 | > 5 | –
CCOc1ccccc1-c1nc(CNC2C[C@@H]3C[C@H]([C@H]2C)C3(C)C)co1 (some centres not stated) | – | 27.8 (≈ 78.4 µM) | 1.05 (≈ 2.96 µM) | 2.05 µg/mL (≈ 5.78 µM)
COc1ccc(/C(CNC(C)C)=N/O)cc1 | – | > 50 | > 5 | –
CCOc1ccc(-c2nc(CNC3CC4CCC3C4)co2)cc1 (configuration not stated) | 4.62 (≈ 14.8 µM) | 35 (≈ 112 µM) | 4.1 (≈ 13.1 µM) | –
COc1ccccc1/C(=N/O)N(C(=O)C(C)C)C(=O)C(C)C | – | > 50 | > 5 | –
O/N=C(\NC1CCCCC1)c1cccc(F)c1 | – | > 50 | > 5 | –
CCCCc1ccc(-c2nc(C(F)(F)F)co2)cc1 | 43.8 (≈ 163 µM) | > 50 | > 5 | –
CCCOc1ccc(-c2nc(CNC3CC(C)CC(C)(C)C3)co2)cc1 (configuration not stated) | < 3.13 | 15.9 (≈ 44.5 µM) | 1.37 (≈ 3.84 µM) | –
CCCOc1ccc(-c2nc(CNC[C@@H]3CC[C@H]4C[C@@H]3C4(C)C)co2)cc1 | < 3.13 | 16 (≈ 43.5 µM) | 0.74 (≈ 2.01 µM) | –
C[C@H]1C(NCc2coc(-c3ccccc3Br)n2)C[C@@H]2C[C@H]1C2(C)C (some centres not stated) | – | 43.2 (≈ 111 µM) | 1.22 (≈ 3.13 µM) | 0.94 µg/mL (≈ 2.41 µM)
O/N=C(\NC1CCCCC1)c1ccccc1Br | – | > 50 | > 5 | –
CCCCCC(C)NCc1cccc(-c2ccccc2)c1 (configuration not stated) | 3.39 (≈ 12 µM) | > 50 | 0.81 (≈ 2.88 µM) | –
CCCCCC(C)NCc1coc(-c2cccc(C)c2)n1 (configuration not stated) | 7.13 (≈ 24.9 µM) | 16 (≈ 55.9 µM) | 3.33 (≈ 11.6 µM) | –
CCCCc1ccc(-c2nc(C(C)(C)C)co2)cc1 | 28.7 (≈ 112 µM) | > 50 | > 5 | –
COc1ccc(/C(=N/O)N(C(=O)C(C)C)C(=O)C(C)C)cc1 | – | > 50 | > 5 | –
CCCCCC(C)NCc1ccc(-c2ccccc2)o1 (configuration not stated) | 7.14 (≈ 26.3 µM) | 32 (≈ 118 µM) | 3.62 (≈ 13.3 µM) | –
CCCCCC(C)NCc1coc(-c2ccccc2F)n1 (configuration not stated) | 3.59 (≈ 12.4 µM) | 13 (≈ 44.8 µM) | 1.82 (≈ 6.27 µM) | –
CN(/C(=N\O)c1cccnc1OCc1ccccc1F)c1ccccc1 | – | > 50 | 1.06 (≈ 3.02 µM) | –
COc1ccc(C(=N)NO)cc1 | – | > 50 | > 5 | –
